Like-named read-outs stand apart in the source and are kept apart here.
How the values were obtained:
[1] = target: T1, α4β2 nAChR (Rattus norvegicus, UniProt P09483+P12390); assay: Binding of 3H-cytisine to α4β2 nAChR, crude synaptic membranes; conditions: for inhibition at 10 µM: read-out: α4β2 % Inhibition at 10 μM
T1 construct: crude synaptic membrane preparations from rat cerebral cortex, striatum and hippocampus; from tissue; host or cells: rat cerebral cortex, striatum and hippocampus (crude synaptic membranes, P2 fraction)
T1 sequence (P09483 31-630): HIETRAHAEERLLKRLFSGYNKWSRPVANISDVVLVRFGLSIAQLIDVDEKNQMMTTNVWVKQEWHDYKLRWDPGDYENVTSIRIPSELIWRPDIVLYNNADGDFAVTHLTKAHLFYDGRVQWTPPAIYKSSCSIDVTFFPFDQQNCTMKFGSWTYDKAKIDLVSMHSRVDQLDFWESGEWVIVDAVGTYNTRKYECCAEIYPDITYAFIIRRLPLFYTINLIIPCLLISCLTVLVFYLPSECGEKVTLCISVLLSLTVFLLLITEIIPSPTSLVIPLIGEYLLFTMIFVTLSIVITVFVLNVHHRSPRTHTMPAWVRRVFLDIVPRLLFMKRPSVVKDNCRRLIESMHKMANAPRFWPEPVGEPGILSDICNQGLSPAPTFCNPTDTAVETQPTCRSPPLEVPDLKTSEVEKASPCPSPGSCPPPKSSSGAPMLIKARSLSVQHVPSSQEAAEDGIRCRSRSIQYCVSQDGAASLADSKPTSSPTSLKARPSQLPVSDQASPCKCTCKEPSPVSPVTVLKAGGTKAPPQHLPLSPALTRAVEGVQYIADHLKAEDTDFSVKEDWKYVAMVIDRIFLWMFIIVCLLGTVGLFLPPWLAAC
T1 sequence (P12390 25-500): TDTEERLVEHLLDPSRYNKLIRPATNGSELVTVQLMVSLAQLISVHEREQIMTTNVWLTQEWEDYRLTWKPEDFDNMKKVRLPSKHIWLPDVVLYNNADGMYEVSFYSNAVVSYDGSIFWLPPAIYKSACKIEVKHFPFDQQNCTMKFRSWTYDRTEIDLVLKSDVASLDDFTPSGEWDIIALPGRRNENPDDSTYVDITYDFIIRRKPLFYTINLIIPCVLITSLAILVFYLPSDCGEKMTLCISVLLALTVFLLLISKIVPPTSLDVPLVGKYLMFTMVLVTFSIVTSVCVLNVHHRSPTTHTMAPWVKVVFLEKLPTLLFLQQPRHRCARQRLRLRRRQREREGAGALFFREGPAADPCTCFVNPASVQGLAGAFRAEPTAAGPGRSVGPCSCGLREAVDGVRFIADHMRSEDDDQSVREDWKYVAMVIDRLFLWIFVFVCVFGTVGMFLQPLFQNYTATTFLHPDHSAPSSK
Protocol: α4β2 Nicotinic Acetylcholine Receptor (α4β2 nAChR)
In Vitro Protocol for Determination of α4β2 nAChR Binding Potencies of Ligands
Binding of ^3H-cytisine to neuronal nicotinic acetylcholine receptors was accomplished using crude synaptic membrane preparations from rat cerebral cortex, striatum and hippocampus. Either fresh or frozen membranes were homogenized in ˜50 volumes of 10 mM HEPES (N-2-Hydroxyethylpiperazine-N′-2-Ethanesulfonic acid, pH 7.4) and centrifuged at 42,000×g. The P2 fraction was resuspended in ˜40 volumes of 10 mM HEPES and centrifuged at 42,000×g. This step was repeated and the P2fraction was resuspended in 25 volumes (e.g. 1 g of original into 25 mL) of a medium comprising Na^+-HEPES buffer (10 mM, pH 7.4), 5 mM MgCl2, 0.01% powdered bovine serum albumin (BSA) and 100 mM NaCl. To initiate the binding reaction, test compound (100 μL), Na-HEPES buffered incubation medium (400 μL), ^3H-cytisine (250 μL) and the suspension of biological membranes (250 μL) were mixed, and then the samples were incubated at 23° C. for 40 minutes. The binding reaction was terminated by filtration using a Brandel Cell Harvester and the amount of bound ^3H-cytisine for each sample was quantitated using a Wallac LKB 1205 Betaplate liquid scintillation counter. All test compounds were screened at 10 μM in quadruplicate. Nonspecific binding was determined using 10 μM (+)-epibatidine to block all binding of ^3H-cytisine to the α4β2 nAChR. The activity of each test compound was calculated as follows. After correcting for nonspecific binding, the percent inhibition of specific binding (total binding minus nonspecific) was calculated. Each active compound was further tested at five concentrations to generate a concentration-inhibition curve. The IC50 values were determined using the Prism (GraphPad Software) nonlinear regression program.

[2] = target: T2, α7 nAChR (Rattus norvegicus, UniProt Q05941); assay: Binding of 3H-MLA to α7 nAChR, crude synaptic membranes; conditions: read-out: α7 (% Inh @ 10 uM)
T2 construct: crude synaptic membrane preparations from rat cerebral cortex, striatum and hippocampus; from tissue; host or cells: rat cerebral cortex, striatum and hippocampus (crude synaptic membranes, P2 fraction)
T2 sequence (Q05941 23-502): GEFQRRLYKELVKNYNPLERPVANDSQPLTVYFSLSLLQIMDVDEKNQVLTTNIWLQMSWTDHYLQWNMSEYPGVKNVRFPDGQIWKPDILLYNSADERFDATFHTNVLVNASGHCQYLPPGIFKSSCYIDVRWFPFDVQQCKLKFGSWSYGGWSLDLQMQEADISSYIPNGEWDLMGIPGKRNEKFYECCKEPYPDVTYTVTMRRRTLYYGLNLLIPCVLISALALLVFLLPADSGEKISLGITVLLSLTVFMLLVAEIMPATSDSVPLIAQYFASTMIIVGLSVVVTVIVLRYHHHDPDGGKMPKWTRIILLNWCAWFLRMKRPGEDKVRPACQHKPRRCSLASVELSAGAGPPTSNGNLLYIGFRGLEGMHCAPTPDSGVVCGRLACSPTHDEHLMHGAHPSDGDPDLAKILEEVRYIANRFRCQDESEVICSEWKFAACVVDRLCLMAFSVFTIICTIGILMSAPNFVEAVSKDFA
Protocol: α7 Nicotinic Acetylcholine Receptor (α7nAChR)
In Vitro Protocol for Determination of α7nAChR Binding Potencies of Ligands
Binding of ^3H-MLA (methylcaconitine) to neuronal nicotinic acetylcholine receptors was accomplished using crude synaptic membrane preparations from rat cerebral cortex, striatum and hippocampus. Either fresh or frozen membranes were homogenized in ˜50 volumes of 10 mM HEPES (N-2-Hydroxyethylpiperazine-N′-2-Ethanesulfonic acid, pH 7.4) and centrifuged at 42,000×g. The P2 fraction was resuspended in ˜40 volumes of 10 mM HEPES and centrifuged at 42,000×g. This step was repeated and the P2 fraction was resuspended in 25 volumes (e.g. 1 g of original into 25 mL) of a medium comprised of Na^+-HEPES buffer (10 mM, pH 7.4), 5 mM MgCl2, 0.01% powdered bovine serum albumin (BSA), and 100 mM NaCl. To initiate the binding reaction, test compound (100 μL), Na-HEPES buffered incubation medium (400 μL), ^3H-MLA (250 μL) and the suspension of biological membranes (250 μL) were mixed, and then the samples were incubated at 23° C. for 40 minutes., The binding reaction was terminated by filtration using a Brandel Cell Harvester, and the amount of bound ^3H-MLA for each sample was quantitated using a Wallac LKB 1205 Betaplate liquid scintillation counter. All test compounds were screened at 10 μM in quadruplicate. Nonspecific binding was determined using 10 μM MLA to block all binding of ^3H-MLA to the α7 nAChR. The activity of each test compound was calculated as follows. After correcting for nonspecific binding, the percent inhibition of specific binding (total binding minus nonspecific) was calculated. Each active compound was further tested at five concentrations to generate a concentration-inhibition curve. The IC50 values were determined using the Prism (GraphPad Software) nonlinear regression program.

[3] = 3H-cytisine, rat cerebral cortex, striatum and hippocampus membranes, IC50 from five concentrations, read-out: α4β2

## c1cncc(OC2CNC2)c1 [Example 1, 3-(3-Azetidinyloxy)-pyridine]
[1]
  inhibition at 10 µM: 46%
[2]
  inhibition at 10 µM: 21%

## c1cncc(OC2CCNC2)c1 (stereo not drawn) [Example 2, 3-(3-Pyrrolidinyloxy)-pyridine]
[1]; [3]
  IC50: 209 nM
[2]
  inhibition at 10 µM: -15%

## c1cncc(O[C@H]2CCNC2)c1 [Example 3, 3-(3-(S)-Pyrrolidinyloxy)-pyridine]
[1]; [3]
  IC50: 449 nM
[2]
  inhibition at 10 µM: 5%

## c1cncc(O[C@@H]2CCNC2)c1 [Example 4, 3-(3-(R)-Pyrrolidinyloxy)-pyridine]
[1]; [3]
  IC50: 45 nM
[2]
  inhibition at 10 µM: 11%

## CN1CC[C@@H](Oc2cccnc2)C1 [Example 5, 3-(1-Methyl-3-(R)-pyrrolidinyloxy)-pyridine]
[1]; [3]
  IC50: 544 nM
[2]
  inhibition at 10 µM: 20%

## Clc1ccc(O[C@@H]2CCNC2)cn1 [Example 6, 2-Chloro-5-(3-(R)-pyrrolidinyloxy)-pyridine]
[1]
  IC50: 466 nM
[2]
  inhibition at 10 µM: 20%

## CN1CCC(Oc2cccnc2)C1 (stereo not drawn) [Example 7, 3-(1-Methyl-3-pyrrolidinyloxy)-pyridine]
[1]; [3]
  IC50: 92 nM
[2]
  inhibition at 10 µM: 22%

## CCN1CCC(Oc2cccnc2)C1 (stereo not drawn) [Example 8, 3-(1-Ethyl-3-pyrrolidinyloxy)-pyridine]
[1]
  inhibition at 10 µM: 71%
[2]
  inhibition at 10 µM: 18%

## CC(C)N1CCC(Oc2cccnc2)C1 (stereo not drawn) [Example 9, 3-(1-Isopropyl-3-pyrrolidinyloxy)-pyridine]
[1]
  inhibition at 10 µM: 30%
[2]
  inhibition at 10 µM: 19%

## c1cncc(OC2CCCNC2)c1 (stereo not drawn) [Example 10, 3-(3-Piperidinyloxy)-pyridine]
[1]; [3]
  IC50: 204 nM
[2]
  inhibition at 10 µM: 19%

## c1cncc(O[C@H]2CCCNC2)c1 [Example 11, 3-(3-(S)-Piperidinyloxy)-pyridine]
[1]
  IC50: 673 nM
[2]
  inhibition at 10 µM: 86%

## Clc1ncc(O[C@@H]2CCNC2)cc1Br [Example 12, 2-Chloro-3-bromo-5-(3-(R)-pyrrolidinyloxy)-pyridine]
[1]; [3]
  IC50: 94 nM
[2]
  inhibition at 10 µM: 11%

## N#Cc1ccc(-c2cc(O[C@@H]3CCNC3)cnc2Cl)cc1 [Example 13, 2-Chloro-3-(4-cyano)phenyl-5-(3-(R)-pyrrolidinyloxy)-pyridine]
[1]; [3]
  IC50: 22 nM
[2]
  inhibition at 10 µM: 26%

## COc1cccc(-c2cc(O[C@@H]3CCNC3)cnc2Cl)c1 [Example 14, 2-Chloro-3-(3-methoxy)phenyl-5-(3-(R)-pyrrolidinyloxy)-pyridine]
[1]; [3]
  IC50: 58 nM
[2]
  inhibition at 10 µM: 33%

## C[Si](C)(C)C#Cc1ccc(-c2cc(O[C@@H]3CCNC3)cnc2Cl)cc1 [Example 15, 2-Chloro-3-(4-trimethylsilylethynyl)phenyl-5-(3-(R)-pyrrolidinyloxy)-pyridine]
[1]
  IC50: 25 nM
[2]
  inhibition at 10 µM: 22%
